# Literature values, collected in patent US20210393932A1, “DERMAL PATCHES AND GLASS SWABS FOR APPLICATION OF TOPICAL IMMUNOSENSITIZERS” (Squarex, LLC, priority 2020, published 2021).
# Test system: common warts and alopecia areata
# Settings: solutions of 0.05% to 2.0% weight/volume, vehicle almost always acetone, applied repeatedly (Buckley et al., Lee et al.); cited from earlier work
smiles,measurement,value
"O=[N+]([O-])c1ccc(Cl)c([N+](=O)[O-])c1 [DNCB, 1-chloro-2,4-dinitrobenzene]",treatment of common warts and alopecia areata,used successfully
O=c1c(-c2ccccc2)c1-c1ccccc1 [diphenylcyclopropenone],treatment of common warts and alopecia areata,used successfully
